Test results reported in PubChem BioAssay (NCI).
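Exposure lasted 48 hours, with cells grown in 96-well plates and compounds tested at five concentrations. The concentration for full growth arrest is given as TGI.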

Experiments:
Assay in all cases: NCI-60 cell line screen, 48 h
786-0 renal = test system: 786-0 renal
HCC-2998 colon = test system: HCC-2998 colon
HCT-15 colon = test system: HCT-15 colon
HOP-62 NSCLC = test system: HOP-62 NSCLC
HT29 colon = test system: HT29 colon
K-562 leukemia = test system: K-562 leukemia
KM12 colon = test system: KM12 colon
LOX IMVI melanoma = test system: LOX IMVI melanoma
M14 melanoma = test system: M14 melanoma
MOLT-4 leukemia = test system: MOLT-4 leukemia
OVCAR-5 ovarian = test system: OVCAR-5 ovarian
SF-295 CNS = test system: SF-295 CNS
SK-MEL-5 melanoma = test system: SK-MEL-5 melanoma
SK-OV-3 ovarian = test system: SK-OV-3 ovarian
SNB-19 CNS = test system: SNB-19 CNS
TK-10 renal = test system: TK-10 renal
XF 498 CNS = test system: XF 498 CNS

Structure (SMILES) | TGI (786-0 renal) [µM] | TGI (HCC-2998 colon) [µM] | TGI (HCT-15 colon) [µM] | TGI (HOP-62 NSCLC) [µM] | TGI (HT29 colon) [µM] | TGI (K-562 leukemia) [µM] | TGI (KM12 colon) [µM] | TGI (LOX IMVI melanoma) [µM] | TGI (M14 melanoma) [µM] | TGI (MOLT-4 leukemia) [µM] | TGI (OVCAR-5 ovarian) [µM] | TGI (SF-295 CNS) [µM] | TGI (SK-MEL-5 melanoma) [µM] | TGI (SK-OV-3 ovarian) [µM] | TGI (SNB-19 CNS) [µM] | TGI (TK-10 renal) [µM] | TGI (XF 498 CNS) [µM]
CCCCC/C=C1\CCC(CN(C)C)C1=O (centres undefined) | 7.02 | 31 | 10 | 31.7 | 62.3 | 28.2 | 17 | 20.6 | 28.1 | 30.8 | 33.7 | 40.9 | 34.3 | 27.4 | 36.9 | > 40.1 | 28.3
CS(=O)(=O)c1ccc(-c2cc(-c3ccc(S(C)(=O)=O)cc3)[n+](-c3cc(-c4ccccc4)c([O-])c(-c4ccccc4)c3)c(-c3ccc(S(C)(=O)=O)cc3)c2)cc1 | > 100 | > 100 | > 100 | > 100 | > 100 | > 100 | > 100 | > 100 | > 100 | > 100 | > 100 | > 100 |  |  | > 100 | > 100 | > 100
CCOC(=O)/C(=C/c1ccc(N(C)C)cc1)N(CC)CC | > 100 | > 100 | > 100 | > 100 |  | 65.8 | > 100 | 78.5 | > 100 | > 100 | > 100 | > 100 |  | > 100 | > 100 | > 100 | > 100
COc1cccc(C2CC23C(=O)NC(=O)NC3=O)c1 (centres undefined) | > 100 | > 100 | > 100 | > 100 | > 100 | > 100 | > 100 | > 100 | > 100 | > 100 | > 100 | > 100 | > 100 | > 100 | > 100 | > 100 | > 100
C=CCC1(CN(C)C)CC/C(=C\c2ccc(Cl)cc2)C1=O (centres undefined) | > 100 | > 70.5 | 58.4 | > 100 | 60.1 | 76.3 | > 78.5 | 52 | > 64.9 | 53 | > 100 | > 85.3 | > 79.1 | > 100 | > 100 | > 100 | > 100
CC(C)=CC1CC(=[N+]=[N-])C(=O)C1(C)C (centres undefined) | > 100 | > 100 | > 100 | > 100 | > 31.6 | > 100 | > 100 | > 100 | > 100 | > 100 | > 100 | > 100 | > 100 | > 100 | > 100 | > 100 | > 100
CC1(C)CC(=O)CC(=Nc2ccc([N+](=O)[O-])cc2)C1 | > 100 | > 100 | > 100 | > 100 | > 100 | > 100 | > 100 | 38.8 | > 100 | > 100 | > 100 | > 100 | > 100 | > 100 |  | > 100 | > 100
